Results as given in ChEMBL document CHEMBL1909294, “Translating clinical findings into knowledge in drug safety evaluation--drug induced liver injury prediction system (DILIps)” (PLoS Comput Biol, 2011).

What was measured:
Hepatotoxicity [1] = test system: Hepatotoxicity;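 on HepSE bilirubinemia: bilirubinemia hepatic side effect score drawn from the DILIps training data, a prediction system for drug-induced liver injury; call rule not given here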;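 on HepSE cholecystitis: Cholecystitis-related hepatic side effect score drawn from the DILIps (drug-induced liver injury prediction) training data set; call rule not given here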;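 on HepSE cholelithiasis: hepatic side effect score for cholelithiasis, drawn from the DILIps training data for predicting drug-induced liver injury; call rule not given here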;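 on HepSE cirrhosis: cirrhosis hepatic side effect score taken from the DILIps (drug-induced liver injury prediction) training set; call rule not given here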;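 on HepSE elevated liver function tests: hepatic side effect score for raised liver function tests, as recorded in the DILIps training set used for predicting drug-induced liver injury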; on HepSE hepatic failure: call rule not given here;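 on HepSE hepatomegaly: hepatic side effect score for hepatomegaly, taken from the training set of the DILIps drug-induced liver injury prediction system; call rule not given here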
Hepatotoxicity [2] = test system: Hepatotoxicity; remark: listed apart in the source;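 on HepSE bilirubinemia: bilirubinemia hepatic side effect score drawn from the DILIps training data, a prediction system for drug-induced liver injury; call rule not given here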;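 on HepSE cholecystitis: Cholecystitis-related hepatic side effect score drawn from the DILIps (drug-induced liver injury prediction) training data set; call rule not given here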;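 on HepSE cholelithiasis: hepatic side effect score for cholelithiasis, drawn from the DILIps training data for predicting drug-induced liver injury; call rule not given here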;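 on HepSE cirrhosis: cirrhosis hepatic side effect score taken from the DILIps (drug-induced liver injury prediction) training set; call rule not given here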;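 on HepSE elevated liver function tests: hepatic side effect score for raised liver function tests, as recorded in the DILIps training set used for predicting drug-induced liver injury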; on HepSE hepatic failure: call rule not given here;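 on HepSE hepatomegaly: hepatic side effect score for hepatomegaly, taken from the training set of the DILIps drug-induced liver injury prediction system; call rule not given here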
Hepatotoxicity [3] = test system: Hepatotoxicity; remark: listed apart in the source;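 on HepSE bilirubinemia: bilirubinemia hepatic side effect score drawn from the DILIps training data, a prediction system for drug-induced liver injury; call rule not given here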;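 on HepSE cholecystitis: Cholecystitis-related hepatic side effect score drawn from the DILIps (drug-induced liver injury prediction) training data set; call rule not given here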;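 on HepSE cholelithiasis: hepatic side effect score for cholelithiasis, drawn from the DILIps training data for predicting drug-induced liver injury; call rule not given here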;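 on HepSE cirrhosis: cirrhosis hepatic side effect score taken from the DILIps (drug-induced liver injury prediction) training set; call rule not given here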;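 on HepSE elevated liver function tests: hepatic side effect score for raised liver function tests, as recorded in the DILIps training set used for predicting drug-induced liver injury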; on HepSE hepatic failure: call rule not given here
Hepatotoxicity [4] = test system: Hepatotoxicity; remark: listed apart in the source;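 on HepSE bilirubinemia: bilirubinemia hepatic side effect score drawn from the DILIps training data, a prediction system for drug-induced liver injury; call rule not given here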;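 on HepSE cholecystitis: Cholecystitis-related hepatic side effect score drawn from the DILIps (drug-induced liver injury prediction) training data set; call rule not given here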;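 on HepSE cholelithiasis: hepatic side effect score for cholelithiasis, drawn from the DILIps training data for predicting drug-induced liver injury; call rule not given here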;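 on HepSE cirrhosis: cirrhosis hepatic side effect score taken from the DILIps (drug-induced liver injury prediction) training set; call rule not given here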;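 on HepSE elevated liver function tests: hepatic side effect score for raised liver function tests, as recorded in the DILIps training set used for predicting drug-induced liver injury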; on HepSE hepatic failure: call rule not given here
Hepatotoxicity [5] = test system: Hepatotoxicity; remark: listed apart in the source; on HepSE hepatic failure: call rule not given here
Hepatotoxicity [6] = test system: Hepatotoxicity; remark: listed apart in the source; on HepSE hepatic failure: call rule not given here
Hepatotoxicity [7] = test system: Hepatotoxicity; remark: listed apart in the source
Hepatotoxicity [8] = test system: Hepatotoxicity; remark: listed apart in the source
Hepatotoxicity [9] = test system: Hepatotoxicity; remark: listed apart in the source
Hepatotoxicity [10] = test system: Hepatotoxicity; remark: listed apart in the source
Hepatotoxicity [11] = test system: Hepatotoxicity; remark: listed apart in the source
Hepatotoxicity [12] = test system: Hepatotoxicity; remark: listed apart in the source
Hepatotoxicity [13] = test system: Hepatotoxicity; remark: listed apart in the source
Hepatotoxicity [14] = test system: Hepatotoxicity; remark: listed apart in the source

Compound	HepSE_bilirubinemia (Hepatotoxicity [1])	HepSE_cholecystitis (Hepatotoxicity [2])	HepSE_cholelithiasis (Hepatotoxicity [3])	HepSE_cirrhosis (Hepatotoxicity [4])	HepSE_elevated liver function tests (Hepatotoxicity [5])	HepSE_hepatic failure (Hepatotoxicity [6])	HepSE_hepatic necrosis (Hepatotoxicity [7])	HepSE_hepatitis (Hepatotoxicity [8])	HepSE_hepatomegaly (Hepatotoxicity [9])	HepSE_jaundice (Hepatotoxicity [10])	HepSE_liver disease (Hepatotoxicity [11])	HepSE_liver fatty (Hepatotoxicity [12])	HepSE_liver function tests abnormal (Hepatotoxicity [13])	HepSE_Combined Scores (Hepatotoxicity [14])
C[C@]12CC[C@H]3[C@@H](CCC4=CC(=O)CC[C@@H]43)[C@@H]1CC[C@@H]2O [NANDROLONE]	0	0	0	0	0	0	0	0	0	0	0	0	0	0
Clc1ccc2c(c1)C(N1CCNCC1)=Nc1ccccc1O2 [AMOXAPINE]	0	0	0	0	0	0	0	1	0	1	0	0	0	2
Cc1cc(C(=O)NNCc2ccccc2)no1 [ISOCARBOXAZID]	0	0	0	0	0	0	0	0	0	0	0	0	0	0
O=C(c1ccc(OCCN2CCCCC2)cc1)c1c(-c2ccc(O)cc2)sc2cc(O)ccc12 [RALOXIFENE]	0	0	1	0	0	0	0	0	0	0	0	0	0	1
O=S(=O)(OC[C@H]1O[C@@H](O[C@]2(COS(=O)(=O)[O][Al]([OH])[OH])O[C@H](OS(=O)(=O)[O][Al]([OH])[OH])[C@@H](OS(=O)(=O)[O][Al]([OH])[OH])[C@@H]2OS(=O)(=O)[O][Al]([OH])[OH])[C@H](OS(=O)(=O)[O][Al]([OH])[OH])[C@@H](OS(=O)(=O)[O][Al]([OH])[OH])[C@@H]1OS(=O)(=O)[O][Al]([OH])[OH])[O][Al]([OH])[OH].[OH][Al]([OH])[OH].[OH][Al]([OH])[OH].[OH][Al]([OH])[OH].[OH][Al]([OH])[OH].[OH][Al]([OH])[OH].[OH][Al]([OH])[OH].[OH][Al]([OH])[OH].[OH][Al]([OH])[OH]	0	0	0	0	0	0	0	0	0	0	0	0	0	0
C=CCN1C[C@H](C(=O)N(CCCN(C)C)C(=O)NCC)C[C@@H]2c3cccc4[nH]cc(c34)C[C@H]21 [CABERGOLINE]	0	0	0	0	0	0	0	0	0	0	0	0	1	1
CN1CCC(=C2c3ccccc3CC(=O)c3sccc32)CC1 [KETOTIFEN]	0	0	0	0	0	0	0	1	0	0	0	0	0	1
Cc1ncc2n1-c1ccc(Cl)cc1C(c1ccccc1F)=NC2 [MIDAZOLAM]	0	0	0	0	0	0	0	0	0	0	0	0	0	0
CCCN(CCc1ccsc1)C1CCc2c(O)cccc2C1 (centres undefined)	0	0	0	0	0	0	0	0	0	0	0	0	0	0
CC(=O)N[C@H]1[C@H]([C@H](O)[C@H](O)CO)OC(C(=O)O)=C[C@@H]1N=C(N)N [ZANAMIVIR]	0	0	0	0	0	0	0	0	0	0	0	0	0	0
CC(=O)CC(c1ccccc1)c1c(O)c2ccccc2oc1=O (centres undefined) [WARFARIN]	0	0	0	0	0	0	0	1	0	1	0	0	0	2
CC(=O)N(CC(O)CN(C(C)=O)c1c(I)c(C(=O)NCC(O)CO)c(I)c(C(=O)NCC(O)CO)c1I)c1c(I)c(C(=O)NCC(O)CO)c(I)c(C(=O)NCC(O)CO)c1I (centres undefined) [IODIXANOL]	0	0	0	0	0	0	0	0	0	0	0	0	0	0
CN(C)CCCN1c2ccccc2CCc2ccc(Cl)cc21 [CLOMIPRAMINE]	0	0	0	0	0	0	0	1	0	0	0	0	0	1
CC[N+](C)(C)Cc1ccccc1Br [BRETYLIUM]	0	0	0	0	0	0	0	0	0	0	0	0	0	0
CC(=O)OCC(=O)[C@@]12OC3(CCCC3)O[C@@H]1C[C@H]1[C@@H]3CCC4=CC(=O)C=C[C@]4(C)[C@@]3(F)[C@@H](O)C[C@@]12C [AMCINONIDE]	0	0	0	0	0	0	0	0	0	0	0	0	0	0
CC(C)CN(C[C@@H](O)[C@H](Cc1ccccc1)NC(=O)O[C@H]1CO[C@H]2OCC[C@H]21)S(=O)(=O)c1ccc(N)cc1	1	0	0	1	0	1	0	1	0	1	0	0	0	5
